In ChEMBL document CHEMBL1157926, “Synthesis and biological evaluation of combretastatin analogs as cell cycle inhibitors of the G1 to S transition in Saccharomyces cerevisiae” (2010):
Active and inactive are the calls of the source. No cut-off for these calls is given here.

How the values were obtained:
[1] = test system: Saccharomyces cerevisiae; experiment: Growth inhibition of Saccharomyces cerevisiae BY4741 at 150 uM up to 180 mins; type: functional, organism-based
[2] = test system: Saccharomyces cerevisiae; experiment: Growth inhibition of Saccharomyces cerevisiae BY4741 at 300 uM up to 180 mins; type: functional, organism-based
[3] = test system: Saccharomyces cerevisiae; experiment: Growth inhibition of Saccharomyces cerevisiae BY4741 at 450 uM up to 180 mins; type: functional, organism-based
[4] = test system: Saccharomyces cerevisiae; experiment: Induction of log phase growth arrest in Saccharomyces cerevisiae BY4741; type: functional, organism-based
[5] = test system: Saccharomyces cerevisiae; experiment: Reduction of budding index in Saccharomyces cerevisiae BY4741 at 450 uM relative to control; type: functional; parameters: scale not given: the % may be the effect or the level left
[6] = test system: Saccharomyces cerevisiae; experiment: Cell cycle arrest in Saccharomyces cerevisiae BY4741 assessed as accumulation of cells at G1 phase at 450 uM after 3 hrs by FACS analysis; type: functional
[7] = test system: Saccharomyces cerevisiae; experiment: Induction of G1 phase arrest in Saccharomyces cerevisiae expressing TAP-tagged Clb5 assessed as down-regulation of Clb5 level at 450 uM after 3 hrs by Western blot analysis; type: functional, organism-based
[8] = test system: Saccharomyces cerevisiae; experiment: Induction of G1 phase arrest in Saccharomyces cerevisiae expressing TAP-tagged Cln1 assessed as down-regulation of Cln1 level at 450 uM after 3 hrs by Western blot analysis; type: functional, organism-based
[9] = test system: Saccharomyces cerevisiae; experiment: Induction of G1 phase arrest in Saccharomyces cerevisiae expressing TAP-tagged Cln2 assessed as down-regulation of Cln2 level at 450 uM after 3 hrs by Western blot analysis; type: functional, organism-based
[10] = test system: Saccharomyces cerevisiae; experiment: Induction of G1 phase arrest in Saccharomyces cerevisiae expressing TAP-tagged Sic1 assessed as down-regulation of Sic1 level at 450 uM after 3 hrs by Western blot analysis; type: functional, organism-based
[11] = test system: Saccharomyces cerevisiae; experiment: Induction of G1 phase arrest in alpha factor treated Saccharomyces cerevisiae expressing TAP-tagged Clb5 assessed as inhibition of Clb5 expression at 450 uM after 3 hrs by FACS analysis; type: functional, organism-based
[12] = test system: Saccharomyces cerevisiae; experiment: Induction of snf1 phosphorylation at T210 in Saccharomyces cerevisiae expressing Snf1-9myc at 450 uM after 3 hrs by Western blot analysis; type: functional, organism-based
[13] = test system: Saccharomyces cerevisiae; experiment: Cell cycle arrest in Saccharomyces cerevisiae BY4741 assessed as accumulation of cells at metaphase with post synthetic DNA content by FACS analysis; type: functional, organism-based
[14] = test system: Saccharomyces cerevisiae; experiment: Cell cycle arrest in Saccharomyces cerevisiae BY4741 assessed as accumulation of cells at metaphase with short spindles by FACS analysis; type: functional, organism-based

| SMILES | growth inhibition (GI) [1] | growth inhibition (GI) [2] | growth inhibition (GI) [3] | further results |
| --- | --- | --- | --- | --- |
| COc1ccc(/C=C\c2cc(OC)c(OC)c(OC)c2)cc1[N+](=O)[O-] | inactive | inactive | inactive |  |
| COc1ccc(/C=C/c2cc(OC)c(OC)c(OC)c2)cc1N | inactive | inactive | inactive |  |
| COc1ccc(/C=C\c2cc(OC)c(OC)c(OC)c2)cc1B(O)O |  |  |  | Activity [4]: Dose-dependent effect; Activity [5]: 42%; Activity [6]: 50%; Activity [7]: Active; Activity [8]: inactive; Activity [9]: inactive; Activity [10]: inactive; Activity [11]: Active; Activity [12]: Active |
| COc1ccc(/C=C\c2cc(OC)c(OC)c(OC)c2)c(O)c1O |  |  |  | Activity [4]: Dose-dependent effect; Activity [13]: Active; Activity [14]: Active |
| COc1ccc(/C=C\c2cc(OC)c(OC)c(OC)c2)cc1O [COMBRETASTATIN A4] |  |  |  | Activity [4]: Dose-dependent effect; Activity [5]: 42%; Activity [6]: 50%; Activity [7]: Active; Activity [8]: inactive; Activity [9]: inactive; Activity [10]: inactive; Activity [11]: Active; Activity [12]: Active |
| COc1ccc(/C=C/c2cc(OC)c(OC)c(OC)c2)cc1B(O)O | inactive | inactive | inactive |  |
| COc1ccc(/C=C\c2cc(OC)c(OC)c(OC)c2)cc1N | inactive | inactive | inactive |  |
| COc1ccc(/C=C/c2cc(OC)c(OC)c(OC)c2)c(O)c1O | inactive | inactive | inactive |  |
| COc1ccc(/C=C\c2cc(OC)c(OC)c(OC)c2)cc1F | inactive | inactive | inactive |  |
| COc1ccc(/C=C/c2cc(OC)c(OC)c(OC)c2)cc1O | inactive | inactive | inactive |  |
| COc1ccc(/C=C/c2cc(OC)c(OC)c(OC)c2)cc1[N+](=O)[O-] | inactive | inactive | inactive |  |
| COc1ccc(/C=C/c2cc(OC)c(OC)c(OC)c2)cc1F | inactive | inactive | inactive |  |
